In US20070203066A1, “Compositions and methods for inhibiting cellular proliferation” (priority 2005, published 2007):
Where two headings read alike, the source gives them in different places. Non-standard residues stand in square brackets, D forms with d. Primed or numbered codes have the meaning given here. No end group written: not given here. *: point of attachment. Ida = iminodiacetic acid linker, its two carboxyls bind the Lys side-chain amines of two peptides, giving a homodimer; Ida(3) = iminodiacetic acid linker, Lys side-chain amines bound to its two carboxyl groups; Ida(4) = iminodiacetic acid linker (dimerization linker bound to lysine side chain); Biotin = O=C1N[C@H]2[C@H](CS[C@H]2CCCCC(=O)*)N1; d(hPhe) = N[C@H](CCc1ccccc1)C(=O)O

Test system: HUVECs
Format: cell-based
Protocol: HUVECs were routinely cultured to near confluency in EGM media (Clontech, Mountain View, California). The cells were trypsinized and plated in a 96-well plate at 5,000 cells per well per 100 μl EBM supplemented with 2% FCS and antibiotics. The cells were allowed to adhere to the plate for at least 12 hours. Then, bFGF at 10 ng/ml or VEGF at 5 ng/ml, and various concentrations of peptide, were added to the wells. The cells were cultured for 48 hours at 37 ° C. in a 5% CO2 atmosphere. Cell proliferation was determined using a bromo-deoxyuridine (BrdU) incorporation method as described by the manufacturer. Inhibition of cell proliferation was assessed by BrdU incorporation.

[1] = HUVEC proliferation, bFGF at 10 ng/ml or VEGF at 5 ng/ml, 48 hours, BrdU incorporation, read-out: IC50 on HUVECs

| Compound | IC50 [1] [µM] | IC50 (48 h) [µM] |
| --- | --- | --- |
| KTKRKRKKQRVKIAYEEIFVKN [compound 13] | < 10 | – |
| 340 (Ac-RRHRHQHVRIYFK(Ida(3))-NH2; also: homodimer via Lys13 side chain, Ida linker (Ida amino group Boc)) [compound 340] | < 10 | – |
| 166 (Biotin-TKRKRKKQRVKIIFV; also: Thr1 biotinylated) [compound 166] | 10 to 30 | – |
| 377 (Ac-ARRRRQRVAIMFK-NH2; not fully specified (residue 13); also: homodimer via Ida linker on Lys13 side chain, Boc on Ida amine) [compound 377] | < 10 | – |
| 221 (Ac-RRRRAQAVAIIF; also: dimer: Phe C-termini joined via Lys linker) [compound 221] | < 10 | – |
| 251 (Ac-RRRRRQAVAIPFK; not fully specified (C-terminus); also: homodimer: side chain of Lys13 bound to an Ida linker) [compound 251] | > 30 | – |
| KTKRKRKKQRYEEIFVQNM [compound 30] | > 30 | – |
| 387 (Ac-ARRRRQAVEIYFK-NH2; not fully specified (residue 13); also: homodimer via Ida linker on Lys13 side chain, Ida amine Boc) [compound 387] | < 10 | – |
| 454 (Ac-SRRRRQAVAIVFK-NH2; not fully specified (residue 13); also: homodimer via Ida linker at K13) [compound 454] | < 10 | – |
| 415 (Ac-ARRRRQAVRIKFV; not fully specified (residue 11, bridges); also: homodimer of residues 1-13 via Ida linker on K11 side chain) [compound 415] | < 10 | – |
| KRKKQRVKIAYEEIFVQNM [compound 22] | > 30 | – |
| 226 (Ac-ARRRRQRVAITFK; also: homodimer via Ida linker on side chain of Lys13) [compound 226] | < 10 | – |
| KRKRKKQRVKIIF [compound 81] | 10 to 30 | – |
| 322 (XRRRRQHVHIYFK; Xaa = Acylated Histidine; The side chain of Lysine at position 13 is covalently bound to an Ida linker forming a homodimer of residues 1 through 13.) [compound 322] | < 10 | – |
| KTKRKRKKQRVKIAYEEVFVKNM [compound 6] | < 10 | – |
| KTKRKRKKQRVKIAY [compound 36] | > 30 | – |
| 329 (Ac-ARRRRQRVAIYFK-NH2; not fully specified (residue 13); also: homodimer via Lys13 side chain, GP3 linker) [compound 329] | < 10 | – |
| KTKRKRKKQRVKIIFVQNA [compound 105] | < 10 | – |
| 176 (Ac-RRRARQRVRIIF; also: homodimer via C-terminal Lys linker) [compound 176] | < 10 | – |
| 373 (Ac-ARRRRQRVA[d(hPhe)]YFK(Ida(3))-NH2; also: homodimer via Ida linker on Lys13 side chain, Boc on Ida amine) [compound 373] | 10 to 30 | – |
| KRKKQQRVKIAYEEIFV [compound 77] | > 30 | – |
| 206 (Ac-RRRAAQRVRIIF; also: dimer: Phe C-termini joined via Lys linker) [compound 206] | < 10 | – |
| CC[C@H](C)[C@H](NC(=O)[C@H](C)NC(=O)[C@@H](NC(=O)[C@H](C)NC(=O)[C@H](CCC(N)=O)NC(=O)[C@H](CCCNC(=N)N)NC(=O)[C@H](CCCNC(=N)N)NC(=O)[C@H](CCCNC(=N)N)NC(=O)[C@H](CCCNC(=N)N)NC(=O)[C@H](C)NC(C)=O)C(C)C)C(=O)N[C@@H](Cc1ccc(O)cc1)C(=O)N[C@@H](Cc1ccccc1)C(=O)N[C@@H](CCCCNC(=O)CN(CC(=O)NCCCC[C@H](NC(=O)[C@H](Cc1ccccc1)NC(=O)[C@H](Cc1ccc(O)cc1)NC(=O)[C@@H](NC(=O)[C@H](C)NC(=O)[C@@H](NC(=O)[C@H](C)NC(=O)[C@H](CCC(N)=O)NC(=O)[C@H](CCCNC(=N)N)NC(=O)[C@H](CCCNC(=N)N)NC(=O)[C@H](CCCNC(=N)N)NC(=O)[C@H](CCCNC(=N)N)NC(=O)[C@H](C)NC(C)=O)C(C)C)[C@@H](C)CC)C(N)=O)C(=O)CCNC(=O)OC(C)(C)C)C(N)=O [Peptide 315] | – | < 10 |
| 383 (Ac-ARRRRQFVAIYFK-NH2; not fully specified (residue 13); also: homodimer via Ida linker on Lys13 side chain, Ida amine Boc) [compound 383] | < 10 | – |
| 347 (Ac-ARRRRQRVAIYTK-NH2; not fully specified (residue 13); also: homodimer of residues 1-13 via Ida linker on Lys13 side chain) [compound 347] | > 30 | – |

| Compound | IC50 [1] [µM] | IC50 (48 h) [µM] |
| --- | --- | --- |
| 335 (Ac-RHRRHQHVRIYFK; not fully specified (residue 13, C-terminus); also: homodimer via Ida linker on Lys13 side chain) [compound 335] | < 10 | – |
| 197 (Ac-RAARRQRVRIIF; also: dimer: C-terminal Phe bound to an amino group of a Lys linker, 2 chains per Lys) [compound 197] | < 10 | – |
| AAKRKRKKQRVKIAYEEIFVQNM [compound 72] | 10 to 30 | – |
| 455 (Ac-TRRRRQAVAIVFK-NH2; not fully specified (residue 13); also: homodimer via Ida linker at K13) [compound 455] | < 10 | – |
| KKSSKRAKTQRRRKSFVKMYENIH [compound 8] | > 30 | – |
| 236 (Ac-RHRHRQRVRIIF; also: dimer via C-terminal Phe to Lys linker) [compound 236] | < 10 | – |
| RKRKKQRVKIAYEEIF [compound 67] | > 30 | – |
| 220 (Ac-RRRARQAVAIIF; also: dimer: Phe C-termini joined via Lys linker) [compound 220] | < 10 | – |
| 262 (Ac-AR[dR]RRQRVAIIFK-NH2; not fully specified (residue 13); also: homodimer via Ida linker on Lys13 side chains) [compound 262] | < 10 | – |
| KKQRVKIAYEEIFVKNM [compound 12] | < 10 | – |
| 104 (Ac-KTKRKRKKQRVKIIFVQNM; also: homodimer via C-terminal Lys linker) [compound 104] | < 10 | – |
| 216 (Ac-ARRRRQAVAIIF; also: dimer: Phe C-termini joined via Lys linker) [compound 216] | 10 to 30 | – |
| KRKRKKQRVKIAYEEIF [compound 66] | 10 to 30 | – |
| 458 (Ac-KARRRRQAVAIYF; not fully specified (residue 1); also: homodimer via Ida linker on Lys side chains, linker at 1 via Ida, other end not in the chain) [compound 458] | > 30 | – |
| KKQRVKIAYEEIFVQNM [compound 24] | > 30 | – |
| 501 (Ac-PRRERQAVAIYFK; not fully specified (residue 13, C-terminus); also: homodimer via Ida linker on Lys13 side chain) [compound 501] | < 10 | – |
| 487 (Ac-ARRRRQPVAIKF; not fully specified (residue 11); also: homodimer: Lys11 side chain bound to Ida linker (Boc on Ida N)) [compound 487] | 10 to 30 | – |
| CC[C@H](C)[C@H](NC(=O)[C@H](Cc1c[nH]cn1)NC(=O)[C@@H](NC(=O)[C@H](Cc1c[nH]cn1)NC(=O)[C@H](CCC(N)=O)NC(=O)[C@H](CCCNC(=N)N)NC(=O)[C@H](CCCNC(=N)N)NC(=O)[C@H](CCCNC(=N)N)NC(=O)[C@H](CCCNC(=N)N)NC(=O)[C@H](Cc1c[nH]cn1)NC(C)=O)C(C)C)C(=O)N[C@@H](Cc1ccc(O)cc1)C(=O)N[C@@H](Cc1ccccc1)C(=O)N[C@@H](CCCCNC(=O)CN(CC(=O)NCCCC[C@H](NC(=O)[C@H](Cc1ccccc1)NC(=O)[C@H](Cc1ccc(O)cc1)NC(=O)[C@@H](NC(=O)[C@H](Cc1c[nH]cn1)NC(=O)[C@@H](NC(=O)[C@H](Cc1c[nH]cn1)NC(=O)[C@H](CCC(N)=O)NC(=O)[C@H](CCCNC(=N)N)NC(=O)[C@H](CCCNC(=N)N)NC(=O)[C@H](CCCNC(=N)N)NC(=O)[C@H](CCCNC(=N)N)NC(=O)[C@H](Cc1c[nH]cn1)NC(C)=O)C(C)C)[C@@H](C)CC)C(N)=O)C(=O)CCNC(=O)OC(C)(C)C)C(N)=O [Peptide 322] | – | < 10 |
| TKRKRKKQRVKIIF [compound 80] | > 30 | – |
| KTKRKRKKQRVKIAYE [compound 35] | > 30 | – |
| 384 (Ac-ARRRRQGVAIYFK-NH2; not fully specified (residue 13); also: homodimer via Ida linker on Lys13 side chain, Ida amine Boc) [compound 384] | < 10 | – |
| 441 (Ac-RRRRTQAVAIYFK(Ida(4)); not fully specified (C-terminus); also: homodimer via Ida linker at K13) [compound 441] | < 10 | – |
| 330 (XRRHRQHVRIYFK; not fully specified; Xaa = Acylated Histidine; The side chain of Lysine at position 13 is covalently bound to an Ida linker forming a homodimer of residues 1 through 13.) [compound 330] | < 10 | – |
| 303 (Ac-RRRRRQAVRIQIQFK(Ida)-NH2; also: homodimer via Ida linker on Lys15 side chain) [compound 303] | < 10 | – |
| RVKIAYEEIFVQNM [compound 44] | > 30 | – |
